# Patent publication US20200071667A1, “COMPOSITION COMPRISING GLYCYRRHIZIN FOR INDUCING DIFFERENTIATION INTO MYELOID-DERIVED SUPPRESSOR CELL FROM MYELOID CELL” (Konkuk University Glocal Industry-Academic Collabo, priority 2018, published 2020)
# What was measured:
# [1] = system: myeloid cells having a phenotype of CD31+; test: Myeloid cell proliferation after glycyrrhizin treatment without LPS stimulation; type: cell-based, mouse; details: 100, 200 or 300 μg/ml; cultured 48 hours; without stimulation by LPS
# Description: It was examined whether myeloid cells are capable of proliferating even when treated with glycyrrhizin alone without stimulation of the myeloid cells with LPS.
# Specifically, myeloid cells having a phenotype of CD31+ were isolated from mouse myeloid cells obtained in the same manner as in Example 2-2. The myeloid cells were treated with glycyrrhizin at a concentration of 100 μg/ml, 200 μg/ml, or 300 μg/ml, and then cultured for 48 hours. As a control, the myeloid cells were treated with 0.1 ml of PBS. Subsequently, the expression level of myeloid cells was examined by the same flow cytometric analysis as that used in Example <2-1>.
# [2] = system: iNOS; test: iNOS measurement by RT-PCR in glycyrrhizin-treated myeloid cells; type: cell-based, mouse; details: 100, 200 or 300 μg/ml, cultured 48 hours, vs negative control
# Description: Specifically, myeloid cells were isolated from mice of the control of Example 1, treated with glycyrrhizin at a concentration of 100 μg/ml, 200 μg/ml, or 300 μg/ml, and then cultured for 48 hours. Thereafter, RT-PCR was performed. As a negative control, the myeloid cells were treated with 0.1 ml of PBS, and GAPDH was used as an expression control.
# [3] = system: T cells; test: T cell activity measurement by CFSE analysis with glycyrrhizin-induced CD11b+Gr1 myeloid cells as stimulator cells; type: cell-based, mouse; details: stimulator cells from 300 μg/ml glycyrrhizin, 48 hours; responder:stimulator 1:1, 1:2, 1:4; 3 days
# Description: Specifically, mouse myeloid cells were obtained in the same manner as in Example <2-2>, treated with 300 μg/ml of glycyrrhizin, and then cultured for 48 hours. Subsequently, CD11b+Gr1 myeloid cells induced to be differentiated were stained and separated with FACSAria to be used as stimulator cells, and for responder cells, T cells were isolated with FACSAria from splenocytes of mice of the control of Example 1 and stained with CFSE. The responder cells and the stimulator cells were treated with CD3 and CD28, which induce the activity of T cells, at a ratio of 1:1, 1:2, or 1:4 and further cultured for 3 days.
# [4] = system: mouse myeloid cells; test: Differentiation into CD11b+Gr1 myeloid cells by glycyrrhizin concentration and culture time, flow cytometric analysis; type: cell-based; details: for expression level of CD11b+Gr1 myeloid cells: 300 μg/ml
# Description: Flow cytometric analysis was performed to determine whether the concentration of glycyrrhizin with which myeloid cells were treated or culture time affects differentiation into CD11b+Gr1 myeloid cells from myeloid cells.
# Specifically, mouse myeloid cells were obtained in the same manner as in Example <2-2>, treated with glycyrrhizin at a concentration of 100 μg/ml, 200 μg/ml, or 300 μg/ml, and then cultured for 24 hours or 48 hours. As a control, the myeloid cells were treated with 0.1 ml of PBS. Subsequently, the expression level of the myeloid cells was examined by the same flow cytometric analysis as that used in Example <2-1>.
smiles,measurement,setting,value
"CC1(C)[C@@H](O[C@H]2O[C@H](C(=O)O)[C@@H](O)[C@H](O)[C@H]2O[C@@H]2O[C@H](C(=O)O)[C@@H](O)[C@H](O)[C@H]2O)CC[C@]2(C)[C@H]3C(=O)C=C4[C@@H]5C[C@@](C)(C(=O)O)CC[C@]5(C)CC[C@@]4(C)[C@]3(C)CC[C@@H]12 [glycyrrhizin, ammonium glycyrrhizinate]",proliferation of the myeloid cells,[1],increased in a manner dependent upon the concentration of glycyrrhizin
same,expression level of iNOS,[2],increased in a concentration-dependent manner
same,activity of T cells,[3],"the higher the proportion of the stimulator cells (CD11b+Gr1 myeloid cells), the lower the activity of T cells"
same,expression level of CD11b+Gr1 myeloid cells,[4]; cultured 24 hours (control 9.10%),29.5%
same,expression level of CD11b+Gr1 myeloid cells,[4]; cultured 48 hours (control 10.8%),53.1%
same,"expression level of CD11b+Gr1 myeloid cells, concentration dependence","[4]; 100, 200 or 300 μg/ml, cultured 24 hours",increased in a concentration-dependent manner
